For assay [1], the target named is Small ubiquitin-related modifier 2 (Homo sapiens, UniProt P61956). Nature of the assay: disruption of SUMO2 interaction with SIM peptide – biochemical, fluorescence polarization, uHTS hits, selectivity assay for SUMO1 interaction inhibitor project, dose response (AID 624385). Particulars: read-out: IC50_Mean. The assay is classed as functional. On the technique in general: In fluorescence polarisation assays a small probe gives low polarisation when free and higher when bound to something large.

Assay [2] concerns the target Genome polyprotein (dengue virus type 2, UniProt P29990). The assay is described as follows: flavivirus cap methylation enzyme inhibition – biochemical, confirmation dose response, primary screen (AID 588689). The assay is classed as functional.
Assay [3] can be described thus: Counterscreen for AddAB inhibitors: absorbance-based bacterial cell-based high throughput dose response assay for inhibitors of bacterial viability. [Related pubchem assays (depositor defined):AID435030, AID449728, AID449731, AID488942, AID488955, AID488956]. Type of assay: functional. For orientation: The purpose of a counterscreen is to sort out artefacts and off-target activity.

Assay [4] is described as follows: blockers of bursicon-stimulated LGR2 cAMP reporter – cell-based, HEK293, CRE-luciferase reporter, cherry pick, set 2, dose response (AID 743343).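 Further: transfected cells were stimulated with diluted bursicon conditioned medium after compound addition.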 Type of assay: functional.
For assay [5], the target named is T1, Protein RecA (Mycobacterium tuberculosis, UniProt P9WHJ3).
T1 sequence (P9WHJ3 whole entry): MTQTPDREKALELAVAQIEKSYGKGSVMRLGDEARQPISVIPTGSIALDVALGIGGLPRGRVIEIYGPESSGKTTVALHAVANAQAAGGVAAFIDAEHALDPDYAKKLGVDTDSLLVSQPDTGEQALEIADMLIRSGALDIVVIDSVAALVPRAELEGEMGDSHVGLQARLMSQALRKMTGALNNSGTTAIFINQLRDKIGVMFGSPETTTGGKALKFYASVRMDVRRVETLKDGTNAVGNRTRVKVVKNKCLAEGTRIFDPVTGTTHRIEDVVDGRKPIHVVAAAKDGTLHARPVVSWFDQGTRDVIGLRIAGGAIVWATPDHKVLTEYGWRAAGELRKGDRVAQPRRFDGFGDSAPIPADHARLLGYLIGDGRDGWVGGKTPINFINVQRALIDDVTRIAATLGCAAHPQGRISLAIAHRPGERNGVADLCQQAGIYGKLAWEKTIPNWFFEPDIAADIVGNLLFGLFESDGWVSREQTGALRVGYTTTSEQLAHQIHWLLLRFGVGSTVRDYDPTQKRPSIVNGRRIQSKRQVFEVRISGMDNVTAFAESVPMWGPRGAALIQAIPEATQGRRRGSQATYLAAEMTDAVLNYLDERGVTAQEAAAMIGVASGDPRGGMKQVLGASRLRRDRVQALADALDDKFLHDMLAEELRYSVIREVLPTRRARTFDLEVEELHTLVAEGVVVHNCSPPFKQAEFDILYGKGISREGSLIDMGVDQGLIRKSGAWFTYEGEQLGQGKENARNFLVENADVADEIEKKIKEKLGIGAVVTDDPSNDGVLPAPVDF
Nature of the assay: GFP-RecA MOA-DTT Measured in Biochemical System Using Plate Reader - 2047-05_Inhibitor_Dose_DryPowder_Activity. [Related pubchem assays (depositor defined):AID2223]. Also noted: species or system Mycobacterium tuberculosis H37Rv.

For assay [6], the target named is Dual specificity protein phosphatase 6 (Rattus norvegicus, UniProt Q64346). Nature of the assay: inhibition of rat DUSP6 enzyme activity – biochemical, in vitro, primary screen (AID 425).
Assay [7] has as its target T2, 1-phosphatidylinositol 4,5-bisphosphate phosphodiesterase beta-3 (Homo sapiens, UniProt Q01970).
T2 sequence (Q01970 whole entry): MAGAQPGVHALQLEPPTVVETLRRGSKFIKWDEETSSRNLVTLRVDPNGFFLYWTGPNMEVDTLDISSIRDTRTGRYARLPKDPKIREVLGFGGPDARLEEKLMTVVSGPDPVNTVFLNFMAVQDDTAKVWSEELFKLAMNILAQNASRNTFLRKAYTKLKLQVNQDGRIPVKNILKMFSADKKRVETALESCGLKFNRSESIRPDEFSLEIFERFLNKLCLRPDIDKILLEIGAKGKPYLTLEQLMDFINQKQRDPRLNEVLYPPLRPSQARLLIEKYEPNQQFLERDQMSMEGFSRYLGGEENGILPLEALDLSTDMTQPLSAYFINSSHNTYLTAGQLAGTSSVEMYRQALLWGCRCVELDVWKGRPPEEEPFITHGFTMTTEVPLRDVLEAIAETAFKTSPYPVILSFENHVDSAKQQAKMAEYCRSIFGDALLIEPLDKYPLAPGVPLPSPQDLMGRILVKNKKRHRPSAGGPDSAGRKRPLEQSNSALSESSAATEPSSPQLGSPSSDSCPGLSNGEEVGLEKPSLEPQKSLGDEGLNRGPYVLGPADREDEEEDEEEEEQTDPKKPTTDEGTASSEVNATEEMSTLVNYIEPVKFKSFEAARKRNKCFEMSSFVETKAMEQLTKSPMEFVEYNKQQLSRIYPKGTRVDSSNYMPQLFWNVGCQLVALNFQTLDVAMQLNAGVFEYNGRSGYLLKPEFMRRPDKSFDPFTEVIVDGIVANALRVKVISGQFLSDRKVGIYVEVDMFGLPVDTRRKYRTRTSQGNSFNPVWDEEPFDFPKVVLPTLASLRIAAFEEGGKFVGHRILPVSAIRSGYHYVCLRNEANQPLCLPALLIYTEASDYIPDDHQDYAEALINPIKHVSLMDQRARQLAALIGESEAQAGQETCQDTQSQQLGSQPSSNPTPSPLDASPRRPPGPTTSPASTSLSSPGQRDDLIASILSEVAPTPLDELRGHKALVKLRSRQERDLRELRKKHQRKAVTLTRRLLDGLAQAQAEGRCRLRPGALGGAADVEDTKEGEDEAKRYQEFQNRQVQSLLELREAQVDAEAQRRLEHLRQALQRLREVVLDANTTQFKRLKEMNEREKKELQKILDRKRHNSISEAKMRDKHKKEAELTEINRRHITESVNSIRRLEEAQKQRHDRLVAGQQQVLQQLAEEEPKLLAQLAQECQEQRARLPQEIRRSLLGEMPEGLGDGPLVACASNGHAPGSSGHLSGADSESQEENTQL
The assay is described as follows: Fluorescence-based biochemical high throughput dose response assay to identify inhibitors of phospholipase C isozymes (PLC-B3).

For assay [8], the system named is Streptococcus sp. 'group A'. Nature of the assay: Streptococcus pyogenes SK(-)GAS viability under kanamycin – luminescence, BacTiterGlo, confirmation, counter-screen for streptokinase expression inhibitor project, dose response (AID 1900). The assay is classed as functional, organism-based.
In assay [9] the test system is BJ. Nature of the assay: BJ-TERT-LT-ST fibroblast viability loss – cell-based, RAS-independent, luminescence, dose response (AID 1935).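 Further: BJ fibroblasts immortalized with TERT plus LT and ST oncogenes.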 Type of assay: functional. The settings on record: Homo sapiens.
The nature of assay [10]: cells. Particulars: HEK-CNG. Type of assay: functional, cell-based.

This passage reports IC50, AC50 and EC50 results from ChEMBL document CHEMBL1201862, “PubChem BioAssay data set” (2004).

The source made the active and inactive calls. Where only a bound is given, the exact number is not on record here.

Small ubiquitin-related modifier 2, sequence (P61956 whole entry): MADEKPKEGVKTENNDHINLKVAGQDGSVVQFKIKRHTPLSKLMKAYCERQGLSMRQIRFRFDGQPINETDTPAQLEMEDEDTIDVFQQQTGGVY
Genome polyprotein, sequence (P29990 2492-3391 limits assumed): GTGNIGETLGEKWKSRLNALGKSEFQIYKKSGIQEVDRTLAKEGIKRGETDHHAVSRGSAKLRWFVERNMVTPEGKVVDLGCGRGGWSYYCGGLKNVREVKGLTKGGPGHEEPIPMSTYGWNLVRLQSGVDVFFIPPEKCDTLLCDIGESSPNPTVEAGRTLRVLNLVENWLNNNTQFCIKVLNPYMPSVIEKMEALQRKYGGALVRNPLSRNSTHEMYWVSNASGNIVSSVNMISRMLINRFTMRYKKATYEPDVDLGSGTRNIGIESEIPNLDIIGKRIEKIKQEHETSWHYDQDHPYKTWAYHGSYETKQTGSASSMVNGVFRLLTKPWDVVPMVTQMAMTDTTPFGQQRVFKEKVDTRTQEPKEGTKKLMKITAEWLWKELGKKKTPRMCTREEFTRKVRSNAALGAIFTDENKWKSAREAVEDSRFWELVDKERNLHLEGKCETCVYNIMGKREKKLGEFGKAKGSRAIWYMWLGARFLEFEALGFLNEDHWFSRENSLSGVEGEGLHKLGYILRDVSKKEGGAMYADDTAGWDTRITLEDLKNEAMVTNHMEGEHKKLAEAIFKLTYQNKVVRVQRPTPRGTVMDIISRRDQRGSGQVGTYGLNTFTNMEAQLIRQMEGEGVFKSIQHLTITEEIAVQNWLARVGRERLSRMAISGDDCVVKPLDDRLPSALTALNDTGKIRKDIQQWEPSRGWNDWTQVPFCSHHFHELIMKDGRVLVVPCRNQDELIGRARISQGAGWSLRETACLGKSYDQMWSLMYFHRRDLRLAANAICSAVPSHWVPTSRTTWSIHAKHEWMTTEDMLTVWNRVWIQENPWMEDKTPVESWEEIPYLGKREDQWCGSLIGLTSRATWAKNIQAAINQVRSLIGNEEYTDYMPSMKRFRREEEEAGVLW
Dual specificity protein phosphatase 6, sequence (Q64346 whole entry): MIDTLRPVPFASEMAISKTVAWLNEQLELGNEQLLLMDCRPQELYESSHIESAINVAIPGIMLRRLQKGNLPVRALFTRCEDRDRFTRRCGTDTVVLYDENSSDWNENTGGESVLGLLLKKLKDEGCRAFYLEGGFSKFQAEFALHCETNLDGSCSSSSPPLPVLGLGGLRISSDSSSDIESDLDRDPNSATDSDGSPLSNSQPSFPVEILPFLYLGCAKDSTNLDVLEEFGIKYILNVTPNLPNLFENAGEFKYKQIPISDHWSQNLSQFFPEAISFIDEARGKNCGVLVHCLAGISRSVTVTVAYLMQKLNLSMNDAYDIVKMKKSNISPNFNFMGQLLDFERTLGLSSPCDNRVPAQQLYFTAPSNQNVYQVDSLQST

In the case of `COc1ccc(NS(=O)(=O)c2ccc3c(c2)[C@H]2C=CC[C@H]2[C@@H](c2ccc(C(=O)O)cc2)N3)cc1`, the results for the IC50 in [1] and in assay [2] were 4.06 µM (active) and 44.3 µM (active), respectively.
Take `CCC(=O)NC(c1ccc(OC)cc1)c1cc(Cl)c2cccnc2c1O` (stereo not given): in [3], the IC50 is > 119 µM (inactive).
The AC50 is the concentration giving half of the maximal activity seen. In the case of `Cn1nc(-c2ccccn2)nc2c(=O)n(C)c(=O)nc1-2`, the AC50 was 2.57 µM (active) in [4] and 143 nM (active) in assay [5]. Besides, the values for the IC50 in assay [6] and in [7] were < 1.23 µM (not active) and > 122 µM (inactive), respectively.
Broadly, the EC50 is the midpoint of the concentration-response curve. For the molecule `CCCCCCCCCCn1c2c(c(=N)c3c1CCC3)CCC2`, the values for the concentration giving a half-maximal response (EC50) in [8], in assay [9] and in assay [10] were 5.58 µM (active), 5.73 µM (inconclusive) and 15.8 µM (inactive), respectively.
